Earlier results as cited in paper PMC11876601 (Molecular Systems Biology, 2025).
Like-named read-outs stand apart in the source and are kept apart here.

How the values were obtained:
Conditions in all cases: cited from earlier work
[1] = tested on: ULK3
[2] = tested on: ERN1
[3] = tested on: LATS1
[4] = tested on: STK10
[5] = tested on: CLK1
[6] = tested on: PLK4
[7] = biological target: CAMK2G
[8] = biological target: AURKB
[9] = tested on: RPS6KA4
[10] = biological target: RET
[11] = biological target: SYK
[12] = tested on: TNK2
[13] = tested on: MAPK10
[14] = tested on: FER
[15] = ULK3, 5 cell line mix lysate, Kinobeads ε, ref Reinecke et al. (2023)
[16] = ERN1, 5 cell line mix lysate, Kinobeads ε, ref Reinecke et al. (2023)
[17] = LATS1, 5 cell line mix lysate, Kinobeads ε, ref Reinecke et al. (2023)
[18] = STK10, 5 cell line mix lysate, Kinobeads ε, ref Reinecke et al. (2023)
[19] = CLK1, 5 cell line mix lysate, Kinobeads ε, ref Reinecke et al. (2023)
[20] = PLK4, 5 cell line mix lysate, Kinobeads ε, ref Reinecke et al. (2023)
[21] = 5 cell line mix lysate, Kinobeads ε, ref Reinecke et al. (2023), read-out: KDapp
[22] = 5 cell line mix lysate, Kinobeads ε, ref Reinecke et al. (2023)
[23] = RPS6KA4, 5 cell line mix lysate, Kinobeads ε, ref Reinecke et al. (2023)
[24] = TNK2, 5 cell line mix lysate, Kinobeads ε, ref Reinecke et al. (2023)
[25] = MAPK10, 5 cell line mix lysate, Kinobeads ε, ref Reinecke et al. (2023)
[26] = 4 cell line mix lysate, Kinobeads y, ref Klaeger et al. (2017)

Q: What does the source list for `COc1cc(N2CCC(N3CCN(C)CC3)CC2)ccc1Nc1ncc(Cl)c(Nc2ccccc2P(C)(C)=O)n1` [Brigatinib]?
A: EC50 [1, 15]: 306 nM; pKDapp [1, 15]: 6.86; Kd ([1]; ULK3, 5 cell line mix lysate, Kinobeads ε, ref Reinecke et al. (2023), read-out: KDapp): 139 nM; EC50 [2, 16]: 142 nM; pKDapp [2, 16]: 6.94; Kd ([2]; ERN1, 5 cell line mix lysate, Kinobeads ε, ref Reinecke et al. (2023), read-out: KDapp): 115 nM; EC50 [3, 17]: 3550 nM; pKDapp [3, 17]: 5.55; Kd ([3]; LATS1, 5 cell line mix lysate, Kinobeads ε, ref Reinecke et al. (2023), read-out: KDapp): 2790 nM; EC50 [4, 18]: 310 nM; pKDapp [4, 18]: 6.55; Kd ([4]; STK10, 5 cell line mix lysate, Kinobeads ε, ref Reinecke et al. (2023), read-out: KDapp): 283 nM; EC50 [5, 19]: 13.1 nM; pKDapp [5, 19]: 8.03; Kd ([5]; CLK1, 5 cell line mix lysate, Kinobeads ε, ref Reinecke et al. (2023), read-out: KDapp): 9.35 nM; EC50 [6, 20]: 95.2 nM; pKDapp [6, 20]: 7.31; Kd ([6]; PLK4, 5 cell line mix lysate, Kinobeads ε, ref Reinecke et al. (2023), read-out: KDapp): 48.5 nM; Kd [7, 21]: 93.2 nM; EC50 [7, 22]: 429 nM; pKDapp [7, 22]: 7.03; Kd [8, 21]: 1080 nM; EC50 [8, 22]: 1850 nM; pKDapp [8, 22]: 5.97; EC50 [9, 23]: 2080 nM; pKDapp [9, 23]: 5.89; Kd ([9]; RPS6KA4, 5 cell line mix lysate, Kinobeads ε, ref Reinecke et al. (2023), read-out: KDapp): 1290 nM; Kd [10, 21]: 125 nM; EC50 [10, 22]: 283 nM; pKDapp [10, 22]: 6.90; Kd [11, 21]: 1570 nM; EC50 [11, 22]: 1870 nM; pKDapp [11, 22]: 5.81; EC50 [12, 24]: 5.93 nM; pKDapp [12, 24]: 8.57; Kd ([12]; TNK2, 5 cell line mix lysate, Kinobeads ε, ref Reinecke et al. (2023), read-out: KDapp): 2.67 nM; EC50 [13, 25]: 789 nM; pKDapp [13, 25]: 6.18; Kd ([13]; MAPK10, 5 cell line mix lysate, Kinobeads ε, ref Reinecke et al. (2023), read-out: KDapp): 663 nM; EC50 [14, 22]: […]

Q: With `C[C@]12O[C@H](C[C@]1(O)CO)n1c3ccccc3c3c4c(c5c6ccccc6n2c5c31)CNC4=O` [Lestaurtinib] as the compound, how does the EC50 ([1]; ULK3, 4 cell line mix lysate, Kinobeads y, ref Klaeger et al. (2017)) read?
A: […]

Q: And the EC50 ([2]; ERN1, 4 cell line mix lysate, Kinobeads y, ref Klaeger et al. (2017))?
A: […]

Q: And the EC50 ([3]; LATS1, 4 cell line mix lysate, Kinobeads y, ref Klaeger et al. (2017))?
A: […]

Q: What about the EC50 ([4]; STK10, 4 cell line mix lysate, Kinobeads y, ref Klaeger et al. (2017)) of the same compound?
A: […]

Q: What about the EC50 ([5]; CLK1, 4 cell line mix lysate, Kinobeads y, ref Klaeger et al. (2017)) of the same compound?
A: […]

Q: What about the EC50 ([6]; PLK4, 4 cell line mix lysate, Kinobeads y, ref Klaeger et al. (2017)) of the same compound?
A: […]

Q: What about the EC50 [7, 26] of the same compound?
A: […]

Q: What about the EC50 [8, 26] of the same compound?
A: […]

Q: And the EC50 ([9]; RPS6KA4, 4 cell line mix lysate, Kinobeads y, ref Klaeger et al. (2017))?
A: […]

Q: And the EC50 [10, 26]?
A: […]

Q: What about the EC50 [11, 26] of the same compound?
A: […]

Q: What about the EC50 ([13]; MAPK10, 4 cell line mix lysate, Kinobeads y, ref Klaeger et al. (2017)) of the same compound?
A: 33.2 nM
